{"source": "paper PMC2818973", "about": "(Journal of medicinal chemistry, 2010)", "settings": "mouse, in vivo, iv", "data": [{"smiles": "CC(=NNc1ccc(I)cn1)c1ccc2c(c1)C1C=CCC1C(c1cc3c(cc1Br)OCO3)N2", "note": "(stereo not shown) [Compound 9, N-{1-[4-(6-Bromo-benzo[1,3]dioxol-5-yl)-3a,4,5,9b-tetrahydro-3H-cyclopenta[c]quinolin-8-yl]-ethylidene}-N′-(5-iodo-pyridin-2-yl)-hydrazine]", "values": [{"measurement": "metabolism and clearance (in words)", "result": "rapidly metabolized and eliminated via the hepatobiliary system"}]}]}
